# How the values were obtained:
# [1] = target: PRMT5-MTA (Homo sapiens, UniProt O14744); assay: biochemical; conditions: IC50 (nM), PRMT5+MTA enzyme activity inhibition; PRMT5/MET50 protein 1 nM, 5'-deoxy-5'-adenosine 1 µM, SAM 2.5 µM, Histone H4 substrate 5 nM
# Procedure: The enzymatic inhibition activity of the compounds against PRMT5-MTA was detected using the AlphaScreen method. A 1× methyltransferase assay buffer IV (Signalchem) was prepared as a dilution solution for each component of the enzymatic reaction. […] The test compounds were added to all wells except the control wells in a 3-fold dilution series of 10 concentration points starting from 1000 nM using a Tecan D300e. After centrifugation at 1000 rpm for 1 minute in a centrifuge, the plate was incubated at 23°C for 15 minutes. Histone H4 substrate at a final concentration of 5 nM was added to the plate at 4 µL per well. After centrifugation at 1000 rpm for 1 minute in a centrifuge, the plate was reacted in an incubator at 23°C for 45 minutes. Anti-Histone H4 (symmetric dimethyl R3) antibody (Abcam) was pre-incubated with 50 µg/mL AlphaScreen Protein A Acceptor beads (PerkinElmer) at room temperature for 10 minutes, and then added to the plate in a volume of 10 µL per well, followed by reaction at room temperature for 1 hour. 10 µL of 50 µg/mL AlphaScreen Streptavidin Donor beads (PerkinElmer) were added to each well, and reacted at room temperature for 1 hour. The signal values in the plate were detected using the Alpha method on an Envision multi-mode plate reader. The IC50 values of the compounds for PRMT5/MET50 enzyme activity inhibition were calculated in Xlfit 5.0 software.
# [2] = tested on: HCT116 MTAP KO; assay: Cell proliferation inhibition (CellTiter Glo), HCT116 MTAP KO cells; format: cell-based; conditions: Homo sapiens, HCT-116, 144 h, cultured 6 days with compound
# Procedure: (§1) Test Example 2: Test of cell proliferation inhibition activity of the compounds
# (§2) HCT116-WT (ATCC, CCL-247) and HCT116 MTAP KO (Cobioer Nanjing, CBP75002) cells were seeded into white low-transparency 96-well sterile cell culture plates at a density of 250 cells per well, respectively. The culture medium was McCoy's 5A Medium + 10% FBS. The plates were incubated overnight at 37°C with 5% CO2. The cells were treated with compounds gradiently with an initial concentration of 10000 nM, 4-fold dilution, and 8 concentration points. The last two columns were control wells with only DMSO added. The treated cells were continued to be cultured for 6 days. On the seventh day, 50 µL of CellTiter Glo® reagent was added to each well. After reacting on a shaker at room temperature for 10 minutes, the chemiluminescence signal in the plate was detected using the chemiluminescence detection method on a BIOTEK H1 multi-mode plate reader. […] Table 2: IC50 values of compounds for HCT116 MTAP KO/WT cell growth inhibition
# [3] = tested on: HCT116-WT; assay: Cell proliferation inhibition (CellTiter Glo), HCT116-WT cells; format: cell-based; conditions: 144 h, cultured 6 days with compound
# Procedure: as §1, §2
# PRMT5-MTA, sequence (O14744 whole entry): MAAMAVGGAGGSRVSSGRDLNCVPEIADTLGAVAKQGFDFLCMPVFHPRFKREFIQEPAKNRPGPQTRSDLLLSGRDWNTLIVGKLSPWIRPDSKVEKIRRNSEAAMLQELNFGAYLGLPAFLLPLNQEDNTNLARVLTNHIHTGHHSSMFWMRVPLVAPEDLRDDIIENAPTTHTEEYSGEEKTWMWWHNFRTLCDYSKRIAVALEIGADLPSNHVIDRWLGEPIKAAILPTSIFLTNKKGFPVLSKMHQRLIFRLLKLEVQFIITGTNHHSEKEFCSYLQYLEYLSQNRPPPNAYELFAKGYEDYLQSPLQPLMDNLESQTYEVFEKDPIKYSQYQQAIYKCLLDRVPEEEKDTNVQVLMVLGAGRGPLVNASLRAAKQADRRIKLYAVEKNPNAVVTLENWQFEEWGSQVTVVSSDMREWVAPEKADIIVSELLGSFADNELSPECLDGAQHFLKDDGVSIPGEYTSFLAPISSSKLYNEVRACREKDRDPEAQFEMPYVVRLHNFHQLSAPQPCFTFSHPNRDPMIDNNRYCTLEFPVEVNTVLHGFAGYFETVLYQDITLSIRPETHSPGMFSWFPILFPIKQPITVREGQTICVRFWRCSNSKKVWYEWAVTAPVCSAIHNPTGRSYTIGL
# PRMT5-MTA, sequence (Q9BQA1 whole entry partner): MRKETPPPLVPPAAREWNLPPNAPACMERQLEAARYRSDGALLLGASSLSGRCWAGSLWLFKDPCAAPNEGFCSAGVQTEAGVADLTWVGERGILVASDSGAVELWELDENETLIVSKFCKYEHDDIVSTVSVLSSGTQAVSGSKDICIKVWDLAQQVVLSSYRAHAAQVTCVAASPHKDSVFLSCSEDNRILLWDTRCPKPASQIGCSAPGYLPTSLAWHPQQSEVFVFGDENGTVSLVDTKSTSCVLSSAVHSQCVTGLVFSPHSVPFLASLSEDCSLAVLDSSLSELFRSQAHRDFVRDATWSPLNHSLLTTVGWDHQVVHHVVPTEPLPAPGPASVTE
SMILES,IC50 [1] [nM],IC50 [2] [nM],IC50 [3] [nM]
CNC(N)=Nc1ccc(C(=O)N(Cc2ccc(C(F)(F)F)cn2)C(C)c2ncccn2)cc1 (stereo not shown) [Compound 4],1.6,–,–
"CN/C(N)=N\c1ccc(C(=O)N(Cc2ccc3nc(C)sc3c2)[C@H](C)c2ccccc2F)cn1 [Compound 78, (R,Z)-6-((amino(methylamino)methylene)amino)-N-(1-(2-fluorophenyl)ethyl)-N-((2-methylbenzo[d]thiazol-6-yl)methyl)nicotinamide]",7.7,287,1860
CNC(N)=Nc1ccc(C(=O)N(Cc2ccc(F)c(C)c2)[C@H](C)c2ccccc2F)cn1 [Compound 101],3.1,352,1790
CNC(N)=Nc1ccc(C(=O)N(Cc2ccc(C(F)(F)F)cn2)c2cccc3ccccc23)cn1 [Compound 47],1.4,31,593
CNC(N)=Nc1ccc(C(=O)N(Cc2cccc(Cl)c2)[C@H](C)c2ccccc2F)cn1 [Compound 106],5.9,601,2890
CNC(N)=Nc1ccc(C(=O)N(Cc2ccc(C(F)(F)F)cn2)C(C)c2ncccn2)cn1 (stereo not shown) [Compound 1],1.7,150,2250
CNC(N)=Nc1ccc(C(=O)N(Cc2ccc(C(F)(F)F)cn2)C(C)c2ccc(F)cc2)cn1 (stereo not shown) [Compound 37],–,454,2700
CNC(N)=Nc1ccc(C(=O)N(Cc2ccc(C(F)(F)F)cn2)C(C)c2ccc(C)cc2)cn1 (stereo not shown) [Compound 40],1.9,–,–
CNC(N)=Nc1ccc(C(=O)N(Cc2ccc(C(F)(F)F)cn2)N2CCc3ccccc32)cn1 [Compound 64],3.2,63,1960
NC(=Nc1ccc(C(=O)N(Cc2ccc(C(F)(F)F)cn2)C2CCCc3ccccc32)cn1)NO (stereo not shown) [Compound 116],3.4,63,307
CNC(N)=Nc1ccc(C(=O)N(Cc2ccc(-c3cnc(C)nc3)cn2)[C@H](C)c2ccccc2F)cn1 [Compound 70],3.9,150,2580
"CN/C(N)=N\c1ccc(C(=O)N(Cc2ccc(C(F)(F)F)cn2)C(C)c2ccc(F)cc2)cn1 (stereo not shown) [Compound 118, (Z)-6-((amino(methylamino)methylene)amino)-N-(1-(4-fluorophenyl)ethyl)-N-((5-(trifluoromethyl)pyridin-2-yl)methyl)nicotinamide]",1.5,454,2700
CNC(N)=Nc1ccc(C(=O)N(Cc2ccc(C(F)(F)F)cn2)C(C)c2ccccc2F)cn1 (stereo not shown) [Compound 42],1.6,61,982
NC(=Nc1ccc(C(=O)N(Cc2ccc(C(F)(F)F)cn2)C2CCCc3cccnc32)cn1)NO (stereo not shown) [Compound 117],5.7,21,115
CNC(N)=Nc1ccc(C(=O)N(Cc2ccccc2)Cc2ccc(C(F)(F)F)cn2)cn1 [Compound 36],3.6,521,5360
"CNC(N)=Nc1ccc(C(=O)N(Cc2ccc(C(C)F)cn2)[C@H](C)c2ccccc2F)cn1 (stereo partly drawn) [Compound 74, 6-((Z)-(amino(methylamino)methylene)amino)-N-((5-(1-fluoroethyl)pyridin-2-yl)methy 1)-N-((R)-1-(2-fluorophenyl)ethyl)nicotinamide]",8,41,744
CNC(N)=Nc1ccc(C(=O)N(Cc2ccc(-c3cnn(C)c3)cn2)[C@H](C)c2ccccc2F)cn1 [Compound 129],5.4,233,2520
"CN/C(N)=N\c1ccc(C(=O)N(Cc2ccc(C(F)(F)F)cn2)C(C)c2cccc3nccnc23)cn1 (stereo not shown) [Compound 120, (Z)-6-((amino(methylamino)methylene)amino)-N-(1-(quinoxalin-5-yl)ethyl)-N-((5-(trifluoromethyl)pyridin-2-yl)methyl)nicotinamide]",1,–,–
"CNC(N)=Nc1ccc(C(=O)N2C[C@@H](C)CC[C@@H]2c2ccc(F)cc2)cn1 [Compound 57, 2-(5-((2R,5S)-2-(4-fluorophenyl)-5-methylpiperidine-1-carbonyl)pyridin-2-yl)-1-methyl guanidine]",1.8,–,–
CNC(N)=Nc1ccc(C(=O)N(Cc2cccnc2)[C@H](C)c2ccccc2F)cn1 [Compound 100],7.6,–,–
COC=C(N)Nc1ccc(C(=O)N(Cc2ccc(C(F)(F)F)cn2)C(C)c2ncccn2)cn1 (stereo not shown) [Compound 23],5.8,–,–
CNC(N)=Nc1ccc(C(=O)N(Cc2ccc(C(F)(F)F)cn2)C(C)c2ccncc2)cn1 (stereo not shown) [Compound 39],1.2,–,–
CCC(c1ccccc1F)N(Cc1ccc(C(F)(F)F)cn1)C(=O)c1ccc(N=C(N)NC)nc1 (stereo not shown) [Compound 84],–,25,428
CC(c1ncccn1)N(Cc1ccc(C(F)(F)F)cn1)C(=O)c1ccc(N=C(N)NCCN(C)C)nc1 (stereo not shown) [Compound 10],1.3,–,–
CNC(N)=Nc1ccc(C(=O)N(CC2CCCCO2)C(C)c2ccccc2F)cn1 (stereo not shown) [Compound 103],4.2,–,–
COC(=O)CNC(N)=Nc1ccc(C(=O)N(Cc2ccc(C(F)(F)F)cn2)C(C)c2ncccn2)cn1 (stereo not shown) [Compound 8],5.5,–,–
COCCNC(N)=Nc1ccc(C(=O)N(Cc2ccc(C(F)(F)F)cn2)C(C)c2ncccn2)cn1 (stereo not shown) [Compound 3],2.9,–,–
"CN/C(N)=N\c1ccc(C(=O)N(Cc2ccc(C(F)(F)F)cn2)C2CCCc3nccnc32)cn1 (stereo not shown) [Compound 122, (Z)-6-((amino(methylamino)methylene)amino)-N-(5,6,7,8-tetrahydroquinoxalin-5-yl)-N -((5-(trifluoromethyl)pyridin-2-yl)methyl)nicotinamide]",–,192,1930
"CNC(=Nc1ccc(C(=O)N(Cc2ccc(C(F)(F)F)cn2)C(C)c2ncccn2)cn1)NC (stereo not shown) [Compound 21, 6-((bis(methyl-amino)methylene)amino)-N-(1-(pyrimidin-2-yl)ethyl)-N-((5-(trifluoromethyl)pyridin-2-yl)methyl)nicotinamide]",4.7,–,–
CNC(N)=Nc1ccc(C(=O)N(Cc2ccc(C(F)(F)F)cn2)C2CCC2)cn1 [Compound 35],2,–,–

# More lines, now with the values ahead:
IC50 [1] [nM],IC50 [2] [nM],IC50 [3] [nM],SMILES
–,868,2030,CC(c1ncccn1)N(Cc1ccc(C(F)(F)F)cn1)C(=O)c1ccc(N=C(N)NCC(=O)O)nc1 (stereo not shown) [Compound 18]
1.5,114,1890,CNC(N)=Nc1ccc(C(=O)N(Cc2ccc(C(F)(F)F)cn2)C(C)c2ccccc2)cn1 (stereo not shown) [Compound 32]
7.8,–,–,CNC(N)=Nc1ccc(C(=O)N(Cc2ccc3sc(NC)nc3c2)[C@H](C)c2ccccc2F)cn1 [Compound 80]
4.4,–,–,CNC(N)=Nc1ccc(C(=O)N(Cc2ccc(C(F)(F)F)cc2F)C(C)c2cccc3nccnc23)cn1 (stereo not shown) [compound 121]
1.3,707,3550,CCNC(N)=Nc1ccc(C(=O)N(Cc2ccc(C(F)(F)F)cn2)C(C)c2ncccn2)cn1 (stereo not shown) [Compound 14]
0.8,–,–,CC(c1ncccn1)N(Cc1ccc(C(F)(F)F)cn1)C(=O)c1ccc(N=C(N)NCCO)nc1 (stereo not shown) [Compound 19]
2.6,36,844,"CN/C(N)=N\c1ccc(C(=O)N(Cc2ccc(C(C)(C)F)cn2)[C@H](C)c2ccccc2F)cn1 [Compound 75, (R,Z)-6-((amino(methylamino)methylene)amino)-N-(1-(2-fluorophenyl)ethyl)-N-((5-(2-fluoropropan-2-yl)pyridin-2-yl)methyl)nicotinamide]"
1.5,81,1520,CNC(N)=Nc1ccc(C(=O)N(Cc2ccc(C(F)(F)F)cn2)C2CCOc3cccnc32)cn1 (stereo not shown) [Compound 90]
–,18,413,CNC(N)=Nc1ccc(C(=O)N(Cc2ccc(C(F)(F)F)cn2)C2CCCc3cccnc32)cn1 (stereo not shown) [Compound 59]
7.5,–,–,"CN/C(N)=N\c1ccc(C(=O)N(Cc2ccc(C(F)(F)F)cn2)C(C)c2ncccc2F)cn1 (single isomer, unassigned) [Compound 66]"
1.6,–,–,CNC(N)=Nc1ccc(C(=O)N(Cc2ccc(C(F)(F)F)cn2)C(C)c2cccc3ccccc23)cn1 (stereo not shown) [Compound 43]
2,–,–,"CNC(N)=Nc1ccc(C(=O)N(C)C2COc3cc(C(F)(F)F)ccc32)cn1 (stereo not shown) [Compound 54, 6-((amino(methylamino)methylene)amino)-N-methyl-N-(6-(trifluoromethyl)-2,3-dihydrobenzofuran-3-yl)nicotinamide]"
7.9,–,–,CC(c1ncccn1)N(Cc1ccc(C(F)(F)F)cn1)C(=O)c1ccc(N=C(N)Nc2ccccc2)nc1 (stereo not shown) [Compound 9]
5,–,–,"CNC(N)=Nc1ccc(C(=O)N(C)C2COc3cc(-c4ccncc4)ccc32)cn1 (stereo not shown) [Compound 55, 6-((amino(methylamino)methylene)amino)-N-methyl-N-(6-(pyridin-4-yl)-2,3-dihydrobenzofuran-3-yl)nicotinamide]"
–,54,696,CNC(N)=Nc1ccc(C(=O)N(Cc2ccc(-c3cncs3)cn2)[C@H](C)c2ccccc2F)cn1 [Compound 72]
2.3,–,–,CC(C)NC(N)=Nc1ccc(C(=O)N(Cc2ccc(C(F)(F)F)cn2)C(C)c2ncccn2)cn1 (stereo not shown) [Compound 15]

# Source: patent EP4763847A1 (Jiangsu Yahong Meditech Co., Ltd., priority 2023, dated 2025)
